# Results taken from publication PMC11971462, “Generation and validation of a novel multitarget small molecule in glioblastoma” (Cell Death & Disease, 2025).
# Tests used:
# U87-MG tumors = test: Immunohistochemistry of subcutaneous tumors; format: in vivo, athymic nude-Foxn1nu mice
# Description: Subcutaneous tumors were extracted, fixed with 4% formaldehyde for 48 h and embedded in paraffin. Tumor sections were obtained and stainings for acetyl H3 (9649, Cell Signaling), acetylated α-tubulin (ab179484, abcam), PCNA (Ab18197, abcam) and Cleaved Caspase 3 (AF835, R&D Systems) were performed. ZEISS Axioscan 7 slide scanner was used to capture images of the stainings and analyses were done using Qupath.
# recombinant hMAO-A = target: T1, recombinant hMAO-A (Homo sapiens, UniProt P21397); test: MAO-A inhibition (Ampliflu Red/peroxidase, tyramine); format: biochemical; details: 10 µM compound; read-out: MAO-A inhibition percentage
# T1 construct: purchased Sigma-Aldrich
# Description: The inhibitory capacity of DDI199 on HDACs was studied as previously described. The capacity of DDI199 to inhibit MAOs was studied by mimicking the reaction occurring in cells. Briefly, inhibitor solution containing 10 µM of DDI199 or reference compound was incubated for 30 minutes at 37 °C together with the enzyme solution, containing either recombinant hMAO-A (Sigma-Aldrich) at 0.5 U/mL or hMAO-B (Sigma-Aldrich) at 1.5 U/mL. 200 U/mL horseradish peroxidase (Sigma-Aldrich), 20 mM Ampliflu Red (Sigma-Aldrich) and 100 mM tyramine hydrochloride (Sigma-Aldrich) were then added and absorbance at 570 nm was measured every 5 minutes for 30 minutes. Percentage of inhibition was estimated from these values.
# GNS166 cells = test: q-RTPCR of selected DEGs; format: cell-based, human; details: GNS166 treated versus non-treated
# Description: Total RNA was extracted using Trizol (Life Thechnologies). Reverse transcription was then performed with the Maxima First Strand cDNA Synthesis Kit (ThermoFisher), following manufacturer’s guidelines. Quantitative real-time PCR was carried out in a CFX384 Thermal Cycler (BioRad) by Absolute SYBR Green mix (ThermoFisher). GAPDH was used as housekeeping gene for the correction of variations on initial cDNA levels, and relative gene expression was determined using the 2^-ΔΔCt formula.
# U87-MG cells = test: Washout experiment after treatment; format: in vivo, athymic nude-Foxn1nu mice
# Description: For tumor growth experiments, 5 × 10^5 U87-MG cells were subcutaneously injected into two bottom flanks of athymic nude-Foxn1^nu mice, and once tumors reached a size of 25-50 mm^3, mice were sorted into groups taking into account gender and tumor size. Afterwards, mice were intratumorally treated with vehicle, SAHA 100 µM or DDI199 100 µM following a schedule of 5 days on and 2 days off. In combined treatment, mice were treated intraperitoneally with 0.5 mg/Kg of TMZ for 5 days and intratumorally following a schedule of 5 days on and 2 days off with vehicle, SAHA 100 µM or DDI199 100 µM. After 4 weeks of treatment, some mice were kept for washout experiment, while the rest were sacrificed and tumors were extracted for immunohistochemistry and to disaggregate for reinjection and oncosphere formation studies. For reinjection assays, 1.5 × 10^5 cells were subcutaneously injected and tumor size was periodically measured. Once tumors reached end-point criteria, they were extracted for immunohistochemical analysis. An external caliper was used for tumor size measurement and the tumor volume was estimated using the formula V = L · W^2 · 0.5 (where L is tumor length and W is the tumor width).
# patient-derived GSCs = test: MTT cell viability, summary for patient-derived GSCs; format: cell-based; details: Homo sapiens, 72 h, summary statement
# Description: (§1) MTT assay was used to study cell viability. For that, cells were seeded at a density of 1.5 × 10^3 cells/well in 96-well plates, incubated overnight and then treated with increasing concentrations of DDI199. After 72 h of treatment, MTT absorbance was measured at 570 nm. GraphPad Prism software was used to analyze results and calculate IC50 values.
# GNS179 cells = test: Immunofluorescence of pH3, Cleaved Caspase 3; format: cell-based, human; details: for pH3-positive cells: control […]
# Description: (§2) Immunofluorescence assays were performed following standard procedures. Cells were seeded at a density of 2 × 10^4 cells/well in 8-well immunofluorescence chambers (LabTek Thermo) and incubated overnight before treating with increasing concentrations of DDI199. After 48 h, cells were fixed with 4% PFA. Primary antibodies against phosphohistone H3 (pH3) (ab14955, abcam), Cleaved Caspase 3 (AF385, R&D Systems), Ki67 (ab15580, abcam) and PARP1 (ab32064, abcam) were used. Secondary antibodies were Alexa Fluor anti-mouse (A21422, Invitrogen) and Alexa Fluor anti-rabbit (A31572, Invitrogen), and chromatin was stained with DAPI (D9541, Sigma-Aldrich). Axio Observer 7 epifluorescence microscope was used to take pictures, which were later quantified in Qupath.
# U87-MG and U251-MG cells = test: Immunofluorescence of pH3 and Cleaved Caspase-3; format: cell-based, human; details: U87-MG and U251-MG, 1, 5 and 10 μM
# Description: as §2
# [1] = tested on: Normal Human Astrocytes (NHA); test: MTT cell viability; format: cell-based; details: Astrocyte, 72 h
# Description: as §1
# [2] = tested on: lung cancer NCI-H1299 cells; test: MTT cell viability; format: cell-based; details: Homo sapiens, 72 h
# Description: as §1
# [3] = tested on: gastric cancer MKN45 cells; test: MTT cell viability; format: cell-based; details: Homo sapiens, MKN-45, 72 h
# Description: as §1
# [4] = tested on: GNS179 patient-derived glioma stem cells; test: MTT cell viability; format: cell-based; details: Homo sapiens, 72 h
# Description: as §1
# [5] = tested on: pancreatic cell line RWP1; test: MTT cell viability; format: cell-based; details: Homo sapiens, 72 h
# Description: as §1
# U251-MG glioma cells = test: MTT cell viability; format: cell-based; details: Homo sapiens, U-251, 72 h
# Description: as §1
# U87-MG glioma cells = test: MTT cell viability; format: cell-based; details: Homo sapiens, U-87 MG, 72 h
# Description: as §1
# [6] = tested on: GNS166 patient-derived glioma stem cells; test: MTT cell viability; format: cell-based; details: Homo sapiens, 72 h
# Description: as §1
# [7] = tested on: gastric, pancreatic and lung cancer cells; test: MTT cell viability, summary for other tumor cells; format: cell-based; details: Homo sapiens, 72 h, summary statement
# Description: as §1
# T1 sequence (P21397 whole entry): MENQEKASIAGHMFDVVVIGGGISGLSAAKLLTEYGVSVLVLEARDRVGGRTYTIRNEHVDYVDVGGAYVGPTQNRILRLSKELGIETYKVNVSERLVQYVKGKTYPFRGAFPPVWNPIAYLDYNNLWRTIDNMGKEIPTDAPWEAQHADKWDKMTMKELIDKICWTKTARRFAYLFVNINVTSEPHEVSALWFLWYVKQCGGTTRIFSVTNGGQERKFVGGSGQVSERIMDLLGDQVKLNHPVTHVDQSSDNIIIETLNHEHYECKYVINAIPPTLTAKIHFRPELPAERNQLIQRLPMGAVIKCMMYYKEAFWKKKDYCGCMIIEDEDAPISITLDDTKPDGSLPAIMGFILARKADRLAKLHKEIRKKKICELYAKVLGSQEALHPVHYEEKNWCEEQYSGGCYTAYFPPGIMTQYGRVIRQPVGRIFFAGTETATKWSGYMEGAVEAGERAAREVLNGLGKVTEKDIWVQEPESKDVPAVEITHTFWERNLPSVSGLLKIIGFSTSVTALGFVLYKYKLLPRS
compound,measurement,setting,value
C#CCN(Cc1cc2cc(OCCCN3CCCCC3)ccc2n1S(=O)(=O)c1ccccc1)C(=O)CCCCCCC(=O)NO [DDI199],acetyl H3 immunohistochemical staining,"U87-MG tumors; tumors at day 34, 100 µM intratumoral",83%
same,acetyl α-tubulin immunohistochemical staining,"U87-MG tumors; tumors at day 34, control 0.25",0.32
same,Cleaved Caspase 3 positive cells,"U87-MG tumors; tumors at day 34, control 0.7%",1.5%
same,PCNA positive cells,"U87-MG tumors; tumors at day 34, control 70%",64%
same,inhibition at 10 µM,recombinant hMAO-A,35%
same,Expression of genes associated to neurotransmission/synapsis (q-RTPCR),GNS166 cells,significantly higher
same,Expression of genes associated with cell cycle and DNA remodeling (q-RTPCR),GNS166 cells,significantly reduced
same,"Survival in washout experiment, combined with TMZ","U87-MG cells; TMZ + DDI199 versus control, TMZ alone and TMZ plus SAHA",extended survival
same,Time to end-point volume after washout,"U87-MG cells; after 4 weeks treatment, controls 10 days",20 days
same,Survival in washout experiment,U87-MG cells; compared to controls and SAHA (p = 0.05),significantly longer survival
same,IC50,patient-derived GSCs,5 to 13 µM
same,pH3-positive cells,"GNS179 cells; GNS179, 1 µM",2.4%
same,pH3-positive cells,"GNS179 cells; GNS179, 5 µM",0.8%
same,pH3-positive cells,"GNS179 cells; GNS179, 10 µM",0.11%
same,Cleaved Caspase-3-positive cells,"GNS179 cells; GNS179, 1, 5 and 10 µM",increase
same,Caspase-3 positive cells,U87-MG and U251-MG cells,markedly increased
same,p-H3 positive cells,U87-MG and U251-MG cells,reduced
same,IC50,[1],7 µM
same,IC50,[2],3.33 µM
same,IC50,[3],2.61 µM
same,IC50,[4],5.28 µM
same,IC50,[5],0.88 µM
same,IC50,U251-MG glioma cells,5.45 µM
same,IC50,U87-MG glioma cells,3.23 µM
same,IC50,[6],13 µM
same,IC50,[7],< 3 µM
